From ChEMBL document CHEMBL1201862, “PubChem BioAssay data set” (2004)
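These data come from cells grown in 96-well plates and exposed to compound for 48 hours at five concentrations. Here, GI50 denotes the concentration required for 50% inhibition of growth.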 Active and inactive are the calls of the source. Rule as the data show it: active = GI50 up to about 1.1 µM and inactive = higher.

Columns and labels:
Experiment in all cases: inhibition of tumour cell growth, NCI panel, 48 h
BT-549 = tested on: BT-549
DLD-1 = tested on: DLD-1
DMS-114 = tested on: DMS-114
KM-20L2 = tested on: KM-20L2
M19-MEL = tested on: M19-MEL
DMS-273 = tested on: DMS-273
XF498 = tested on: XF498
HOP-18 = tested on: HOP-18

Compound: Oc1ccc(CCNCc2cc3c(cc2Br)OCO3)cc1
- GI50 (BT-549): 92.5 µM (inactive)

Compound: CC(C)N(CC(=O)O)CC(=O)O
- GI50 (BT-549): > 100 µM (inactive)

Compound: O=c1oc2ccccc2c2nc3ccccc3cc12
- GI50 (BT-549): 51.2 µM (inactive)

Compound: CC(=O)OCC1OC(n2c(N)c(C#N)c(-c3cccc(Cl)c3)c(C#N)c2=S)C(OC(C)=O)C(OC(C)=O)C1OC(C)=O (stereo not drawn)
- GI50 (BT-549): 20.7 µM (inactive)

Compound: O=C1CC(C(OCc2ccccc2)C(OCc2ccccc2)C(OCc2ccccc2)C(COCc2ccccc2)OCc2ccccc2)CC(=O)N1 (stereo not drawn)
- GI50 (BT-549): > 100 µM (inactive)

Compound: NC1(c2cc3ccccc3s2)CCCCCC1
- GI50 (BT-549): 17.7 µM (inactive)

Compound: C(=N\N=C1NCCCN1)/c1ccc2ccccc2c1
- GI50 (BT-549): 17.4 µM (inactive)

Compound: COC(=O)C1CC2C=CC=CC(=O)C2(C)C1 (stereo not drawn)
- GI50 (DLD-1): 15.6 µM (inactive)
- GI50 (DMS-114): 40.4 µM (inactive)
- GI50 (KM-20L2): > 100 µM (inactive)
- GI50 (M19-MEL): 55.5 µM (inactive)

Compound: O=C(c1ccccc1)c1ccc2nc3n(c2c1)C(c1c(Cl)cccc1Cl)SC3 (stereo not drawn)
- GI50 (BT-549): 3.54 µM (inactive)

Compound: COc1ccc(/C=N/Nc2nnc3c(n2)c2ccccc2c2nn(-c4ccccc4Cl)nc23)cc1
- GI50 (BT-549): > 100 µM (inactive)

Compound: C1=N\CCNCC/N=C\c2ccc(cc2)OCc2cccc(n2)COc2ccc/1cc2
- GI50 (BT-549): 66.4 µM (inactive)

Compound: CC(C)N(C(=O)C12C3C4C1C1C2C3C41C(O)C(C)(C)C)C(C)C (stereo not drawn)
- GI50 (DMS-114): > 50 µM (inactive)
- GI50 (DMS-273): > 50 µM (inactive)
- GI50 (KM-20L2): > 50 µM (inactive)
- GI50 (M19-MEL): > 50 µM (inactive)
- GI50 (XF498): > 50 µM (inactive)

Compound: COc1ccc(N2C(=O)CC(C3CC(C(C)(C)C)CCC3=O)C2=O)cc1 (stereo not drawn)
- GI50 (BT-549): > 100 µM (inactive)

Compound: COC(=O)[C@H](Cc1ccccc1)NC(=O)c1ccc(CNC(=O)/C=C/c2ccc(OCc3ccccc3)cc2)cc1
- GI50 (BT-549): 21.5 µM (inactive)

Compound: COC(=O)c1ccc(C)cc1CC1Cc2c(C)cccc2C1=O (stereo not drawn)
- GI50 (BT-549): 4.99 µM (inactive)

Compound: CO/N=C(\C(=O)[N-]n1cn[n+](CC(=O)OC(C)(C)C)c1)c1csc(NC(c2ccccc2)(c2ccccc2)c2ccccc2)n1
- GI50 (BT-549): > 10 µM (inactive)

Compound: O=C(/C=C1\Nc2ccccc2N=C1NC12CC3CC(CC(C3)C1)C2)c1ccc(Br)cc1
- GI50 (BT-549): > 10 µM (inactive)

Compound: Nc1cc(N2CCOCC2)nc(=O)n1-c1ccc(Cl)cc1
- GI50 (BT-549): > 100 µM (inactive)

Compound: CC(=O)Nc1ccc2cc(C#N)c(=O)[nH]c2n1
- GI50 (BT-549): > 100 µM (inactive)

Compound: CC(C)(C)c1cc(C(=O)O)c(C(c2ccccc2)c2ccccc2C(=O)O)c(C(=O)O)c1 (stereo not drawn)
- GI50 (DLD-1): > 100 µM (inactive)
- GI50 (DMS-114): > 100 µM (inactive)
- GI50 (DMS-273): > 100 µM (inactive)
- GI50 (HOP-18): > 100 µM (inactive)
- GI50 (KM-20L2): > 100 µM (inactive)
- GI50 (XF498): > 100 µM (inactive)

Compound: CCOC(=O)CCSc1nc2ccc(I)cc2c(=O)n1Cc1ccccc1
- GI50 (BT-549): 35.6 µM (inactive)

Compound: CC12CP(=O)(c3ccccc3)CC1c1ccccc1C2c1ccccc1 (stereo not drawn)
- GI50 (BT-549): > 10 µM (inactive)

Compound: NC1CC(=O)c2cc(Br)sc21 (stereo not drawn)
- GI50 (BT-549): > 100 µM (inactive)

Compound: CCCC/C=C/C/C=C/CCCCCCCCC(=O)OCC1CCCN2CCCCC12 (stereo not drawn)
- GI50 (BT-549): 15.6 µM (inactive)

Compound: CCc1cccc(C)c1N1C(=O)C(=O)C(c2nc3ccccc3o2)C(=O)C1=O
- GI50 (DLD-1): > 100 µM (inactive)
- GI50 (DMS-273): > 100 µM (inactive)
- GI50 (HOP-18): > 100 µM (inactive)
- GI50 (KM-20L2): > 100 µM (inactive)
- GI50 (M19-MEL): > 100 µM (inactive)
- GI50 (XF498): > 100 µM (inactive)

Compound: N#CSc1[nH]cnc1C(N)=O
- GI50 (BT-549): > 80.7 µM (inactive)

Compound: CC(C)NCCNC(=O)c1ccccc1Nc1c(Cl)cccc1Cl
- GI50 (DLD-1): 13 µM (inactive)
- GI50 (DMS-114): 10.9 µM (inactive)
- GI50 (DMS-273): 13.2 µM (inactive)
- GI50 (KM-20L2): 2.73 µM (inactive)
- GI50 (M19-MEL): 8.38 µM (inactive)
- GI50 (XF498): 2.92 µM (inactive)

Compound: c1ccc(CSc2ccccc2CN2CCN(Cc3ccccc3SCc3ccccc3)CCN(Cc3ccccc3SCc3ccccc3)CC2)cc1
- GI50 (BT-549): 1.87 µM (inactive)

Compound: COc1ccc(C(=O)/C=C/c2cc(O)c(O)cc2F)c(OC)c1
- GI50 (BT-549): 6.52 µM (inactive)

Compound: COC(=O)C(=O)C(C(=O)C(=O)Nc1ccc([N+](=O)[O-])cc1[N+](=O)[O-])c1nc2ccc(Cl)cc2nc1O (stereo not drawn)
- GI50 (BT-549): > 100 µM (inactive)

Compound: CC(C)(C)OC(=O)NC12C3C4C1C1C2C3C41NC(=O)OC(C)(C)C (stereo not drawn)
- GI50 (BT-549): 42.6 µM (inactive)

Compound: O=C(/C=C\c1cccc2ccccc12)c1ccc(F)cc1
- GI50 (DLD-1): 19.1 µM (inactive)
- GI50 (DMS-114): 14.4 µM (inactive)
- GI50 (DMS-273): 15.2 µM (inactive)
- GI50 (HOP-18): 14.3 µM (inactive)
- GI50 (KM-20L2): 16.6 µM (inactive)
- GI50 (M19-MEL): 19.6 µM (inactive)

Compound: Nc1ccccc1/N=C/c1cc2cc([N+](=O)[O-])ccc2s1
- GI50 (BT-549): 12.5 µM (inactive)

Compound: O=C1NC(Nc2cccc(Cl)c2)=N/C1=C\c1ccc(Cl)c(Cl)c1
- GI50 (BT-549): 12.4 µM (inactive)

Compound: Cc1cc([C@H](C#N)c2nc3ccccc3s2)nc(Cl)n1
- GI50 (BT-549): 3.94 µM (inactive)

Compound: Nc1ncnc2c1ncn2C(=O)NC12CC3CC(CC(C3)C1)C2
- GI50 (BT-549): > 100 µM (inactive)

Compound: O=S(=O)(c1ccccc1)[C@H]1[C@@H]2O[C@@H]2C[C@@H]1O
- GI50 (BT-549): > 100 µM (inactive)

Compound: O=C(O)C1Cc2ccccc2OC1=O (stereo not drawn)
- GI50 (BT-549): > 100 µM (inactive)

Compound: CC(C)=CCN1CC(C)C(=O)Nc2ccccc21 (stereo not drawn)
- GI50 (BT-549): > 100 µM (inactive)

Compound: CC(C)CC(Nc1c(O)ccc2ccccc12)C(=O)O (stereo not drawn)
- GI50 (BT-549): 19.5 µM (inactive)

Compound: CN(C)CC1CCCC(CN2CCCCC2)C1=O (stereo not drawn)
- GI50 (BT-549): 15.2 µM (inactive)
- GI50 (DLD-1): 2.98 µM (inactive)
- GI50 (DMS-273): 22.1 µM (inactive)
- GI50 (HOP-18): 2.02 µM (inactive)
- GI50 (KM-20L2): 19.6 µM (inactive)
- GI50 (M19-MEL): 18.8 µM (inactive)

Compound: O=C1Oc2ccccc2C(=O)/C1=C/N1C(=O)CNC1=S
- GI50 (BT-549): > 100 µM (inactive)

Compound: N=c1oc2ccc3ccccc3c2cc1C(N)=O
- GI50 (BT-549): 89.7 µM (inactive)

Compound: O=C1C(=C2SC(c3ccccc3)(c3ccccc3)c3ccccc32)C(=O)c2ccccc21
- GI50 (BT-549): > 100 µM (inactive)

Compound: CC(=O)OCC1OC(n2c(C)c(/N=N/c3ccccc3)c(C)c(C#N)c2=S)C(OC(C)=O)C(OC(C)=O)C1OC(C)=O (stereo not drawn)
- GI50 (BT-549): 49.3 µM (inactive)

Compound: CC(C)COC(c1ccc2c(c1)OCO2)C(C)Br (stereo not drawn)
- GI50 (BT-549): 35.5 µM (inactive)

Compound: COC(=O)C(=O)C1(CCC(C)=O)c2ccccc2-c2c(C)ccc(C)c21 (stereo not drawn)
- GI50 (DLD-1): 50.1 µM (inactive)
- GI50 (DMS-114): 33.7 µM (inactive)
- GI50 (DMS-273): 31.6 µM (inactive)
- GI50 (HOP-18): 56.4 µM (inactive)
- GI50 (KM-20L2): 58.3 µM (inactive)
- GI50 (M19-MEL): 64 µM (inactive)

Compound: COc1cccc(C=O)c1C(=O)c1cc(O)ccc1O
- GI50 (DLD-1): 16.3 µM (inactive)
- GI50 (DMS-114): 11 µM (inactive)
- GI50 (DMS-273): > 58.7 µM (inactive)
- GI50 (HOP-18): 25.1 µM (inactive)
- GI50 (KM-20L2): > 100 µM (inactive)
- GI50 (M19-MEL): 30.8 µM (inactive)
- GI50 (XF498): 44.2 µM (inactive)

Compound: CN(C)c1ccc(C(=C2C=CC(=[N+](C)C)C=C2)c2c(O)c(S(=O)(=O)[O-])cc3cc(S(=O)(=O)O)ccc23)cc1
- GI50 (BT-549): > 100 µM (inactive)

Compound: CC(=O)OCC(OC(C)=O)C1C[C@H]2O[C@@H]3[C@H](C[C@H]2O1)O[C@@]1(C[C@@H]3C)C[C@H](C)[C@@H]2O[C@]3(C[C@@H]2O1)C[C@H]1O[C@H]2[C@H](C)[C@H]4OC(=O)CC5CC[C@H]6OC7[C@H]8O[C@]9(CC[C@H]%10CC(O)(CO)[C@H](CC[C@H]%11C[C@@H](C)C(O)(CO)C(C[C@@H]4O[C@H]2C[C@H]1O3)O%11)O%10)CC8O[C@@H]7[C@@H](O9)[C@H]6O5 (stereo partly drawn)
- GI50 (BT-549): 0.00185 µM (active)

Compound: COc1cc2c(c(OC)c1)C(C)=NC(C)C2 (stereo not drawn)
- GI50 (BT-549): > 100 µM (inactive)

Compound: CC12CC[C@H](O)C(C)(C)[C@H]1CC[C@](C)(O)C2COc1ccc2ccc(=O)oc2c1 (stereo partly drawn)
- GI50 (DLD-1): > 100 µM (inactive)
- GI50 (DMS-114): 85.3 µM (inactive)
- GI50 (DMS-273): > 100 µM (inactive)
- GI50 (HOP-18): > 100 µM (inactive)
- GI50 (KM-20L2): > 100 µM (inactive)
- GI50 (M19-MEL): > 100 µM (inactive)
- GI50 (XF498): > 100 µM (inactive)

Compound: Cc1ccc(/C=C2\CCCc3ccccc3C2=O)cc1
- GI50 (BT-549): 10.1 µM (inactive)

Compound: O=S1(=O)OC(c2ccc(O)cc2)(c2ccc(O)cc2)c2ccccc21 [PHENOLSULFONPHTHALEIN]
- GI50 (BT-549): > 100 µM (inactive)
